How the values were obtained:
c-Met kinase = molecular target: T1, c-Met kinase (Homo sapiens, UniProt P08581); experiment: c-Met inhibition assay (Caliper motility shift assay); assay type: biochemical; settings: for c-Met inhibition % Inhibition (10 μΜ): 10 μΜ compound
T1 construct: purchased Carna
Experimental: A Caliper motility shift assay was applied to test the potency of synthesised compounds against c-Met kinase. Briefly, the compounds were dissolved in DMSO (Sigma) at 0.5 mM concentration, and then were diluted 50× to the final desired highest inhibitor concentration (10 μM) in reaction by DMSO. For all compounds, 100 μL of the diluted compound solution in tubes was transferred to a well on a 96-well plate (Corning) and was serially diluted 10× by transferring 10 μL dilution to 90 μL DMSO in the next well. 100 μL DMSO was added to two empty wells in the same 96-well plate for no compound control and no enzyme control. The plate was marked as source plate. 10 μL of compound solution from source plate was transferred to a new 96-well plate as the intermediate plate. […] After that, 5 μL solution from each well of the intermediate plate was transferred to a 384-well plate (Corning) as the assay plate in duplicates.c-Met kinase (Carna) was added in 1× kinase base buffer to prepare 2.5× enzyme solution, and FAM-labled peptide (GL Biochem) and ATP (Sigma) were added in 1× kinase base buffer to prepare 2.5× peptide solution. 10 μL of 2.5× enzyme solution was added to each well of the 384-well assay plate that already contained 5 μL of compound in 10% DMSO, and then incubated at room temperature for 10 min. […] The data were collected on Caliper and the conversion data were copied from Caliper program.
IC50 values were calculated from three independent experiments by fitting the data in XLfit with the following equation: Y = Bottom + (Top-Bottom)/(1 + (IC50/X)^HillSlope).

[1] = tested on: MKN-45 (human gastric cancer) cell line; experiment: Cell proliferation assay (MTT), MKN-45; assay type: cell-based; settings: 48 h exposure, n = 3 (mean ± SD), read-out: Proliferative inhibition IC50, MKN-45
Experimental: (§1) The anti-proliferative activities of the prepared compounds (12a-12s) were evaluated against A549, MCF-7 and MKN-45 cell lines by MTT assay in vitro. Briefly, tumour cells were cultured to log phase in RPMI 1640 medium supplemented with 10% foetal bovine serum (FBS). After diluting to 2 × 10^4 cells mL^−1 with the complete medium, 100 µL of the obtained cell suspension was added to each well of 96-well culture plates. Subsequently, incubation was performed at 37 °C in 5% CO2 for 24 h before the anti-proliferative assessment. Tested samples at pre-set concentrations were added to 6 wells with cabozantinib as a positive reference. After 48 h exposure period, 40 µL of PBS containing 2.5 mg mL^−1 of MTT was added to each well. Four hours later, 100 µL extraction solution (10% SDS-5% isobutyl alcohol-0.010M HCl) was added. After an overnight incubation at 37°C, the absorbance was measured at a wavelength of 570 nm with an ELISA microplate reader. All compounds were tested three times in each tumour cell lines. The IC50 values were the averages of three determinations and calculated by concentration-response curve fitting method.
(§2) All the synthesised compounds […] were evaluated for their antiproliferation activities against A549 (human lung cancer), MCF-7 (human breast cancer) and MKN-45 (human gastric cancer) cell lines by MTT assay, using cabozantinib as the positive control.

[2] = tested on: MCF-7 (human breast cancer) cell line; experiment: Cell proliferation assay (MTT), MCF-7; assay type: cell-based; settings: MCF7, 48 h exposure, n = 3 (mean ± SD), read-out: Proliferative inhibition IC50, MCF-7
Experimental: as §1, §2

[3] = tested on: A549 (human lung cancer) cell line; experiment: Cell proliferation assay (MTT), A549; assay type: cell-based; settings: 48 h exposure, n = 3 (mean ± SD), read-out: Proliferative inhibition IC50, A549
Experimental: as §1, §2

T1 sequence (P08581 25-1390): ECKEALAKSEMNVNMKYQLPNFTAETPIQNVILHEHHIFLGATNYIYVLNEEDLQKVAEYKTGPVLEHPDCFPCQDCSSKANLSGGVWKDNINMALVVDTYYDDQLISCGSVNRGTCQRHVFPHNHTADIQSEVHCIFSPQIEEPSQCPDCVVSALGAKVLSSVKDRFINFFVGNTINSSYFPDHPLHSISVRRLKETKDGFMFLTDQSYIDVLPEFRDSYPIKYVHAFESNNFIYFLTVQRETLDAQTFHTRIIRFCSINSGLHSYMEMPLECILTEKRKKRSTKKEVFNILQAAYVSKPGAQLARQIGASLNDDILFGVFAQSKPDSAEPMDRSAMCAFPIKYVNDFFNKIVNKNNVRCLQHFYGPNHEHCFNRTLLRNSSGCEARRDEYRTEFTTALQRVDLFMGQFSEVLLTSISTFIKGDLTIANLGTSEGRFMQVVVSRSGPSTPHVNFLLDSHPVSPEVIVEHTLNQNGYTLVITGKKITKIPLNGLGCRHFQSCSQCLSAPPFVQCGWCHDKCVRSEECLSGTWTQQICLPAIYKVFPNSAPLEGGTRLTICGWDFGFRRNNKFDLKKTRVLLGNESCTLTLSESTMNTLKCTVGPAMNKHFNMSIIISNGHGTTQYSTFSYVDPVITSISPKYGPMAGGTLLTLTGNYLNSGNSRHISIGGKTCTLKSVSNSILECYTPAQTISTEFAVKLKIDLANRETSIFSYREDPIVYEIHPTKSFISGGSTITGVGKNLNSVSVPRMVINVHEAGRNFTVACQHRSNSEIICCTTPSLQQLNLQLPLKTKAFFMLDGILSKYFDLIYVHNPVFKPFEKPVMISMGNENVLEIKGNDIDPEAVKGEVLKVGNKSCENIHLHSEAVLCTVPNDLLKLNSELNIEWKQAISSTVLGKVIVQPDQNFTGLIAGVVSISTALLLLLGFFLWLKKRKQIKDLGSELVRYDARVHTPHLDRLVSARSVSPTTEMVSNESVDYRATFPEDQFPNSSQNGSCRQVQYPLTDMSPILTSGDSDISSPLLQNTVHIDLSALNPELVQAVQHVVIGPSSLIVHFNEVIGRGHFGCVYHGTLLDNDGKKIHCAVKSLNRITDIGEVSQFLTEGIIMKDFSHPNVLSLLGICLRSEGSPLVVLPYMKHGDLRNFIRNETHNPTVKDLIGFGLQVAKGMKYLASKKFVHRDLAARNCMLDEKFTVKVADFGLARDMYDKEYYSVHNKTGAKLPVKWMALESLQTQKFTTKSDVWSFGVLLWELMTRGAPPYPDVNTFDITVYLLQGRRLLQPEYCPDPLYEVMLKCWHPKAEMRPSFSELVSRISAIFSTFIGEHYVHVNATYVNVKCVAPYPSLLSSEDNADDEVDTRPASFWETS

Structure (SMILES): COc1cc2nccc(Nc3ccc4nc(-c5ccc(Cl)c(Cl)c5)[nH]c4c3)c2cc1OC [Compound 12r, N-(2–(3,4-dichlorophenyl)-1H-benzo[d]imidazol-6-yl)-6,7-dimethoxyquinolin-4-amine]
- c-Met inhibition % Inhibition (10 μΜ) (c-Met kinase; n = 3 (mean ± SD)): 55.4 ± 2.9%
- IC50 (c-Met kinase; n = 3 (mean ± SD)): 5.3 ± 1.6 µM
- IC50 [1]: > 100 µM
- IC50 [2]: 79.2 ± 1.7 µM
- IC50 [3]: 83.6 ± 4 µM
- melting point: 336 to 338 °C

Structure (SMILES): COc1cc2nccc(Nc3ccc4nc(-c5cc(F)ccc5Br)[nH]c4c3)c2cc1OC [Compound 12s, N-(2–(2-bromo-5-fluorophenyl)-1H-benzo[d]imidazol-6-yl)-6,7-dimethoxyquinolin-4-amine]
- c-Met inhibition % Inhibition (10 μΜ) (c-Met kinase; n = 3 (mean ± SD)): 23.0 ± 1.1%
- c-Met inhibitory activity in words (c-Met kinase; SAR statement, ortho-substituted compounds): loss of activity
- IC50 [1]: > 100 µM
- IC50 [2]: 92.7 ± 5.3 µM
- IC50 [3]: > 100 µM
- melting point: 284 to 286 °C

— paper PMC6237173, “Synthesis of novel 6,7-dimethoxy-4-anilinoquinolines as potent c-Met inhibitors” (Journal of Enzyme Inhibition and Medicinal Chemistry, 2018)
